Reference: PubChem BioAssay (NCI)
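1) Cells in 96-well plates. 2) Compound, 48 h, 5 concentrations. 3) Linear interpolation between surrounding doses. 4) Unreached endpoint = highest concentration. The concentration for 50% growth inhibition is given as GI50. TGI: concentration producing complete growth inhibition.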 *1 amine or outer side, *2 acyl side, *3 side chain or, on linkers, in order; H or OH if unused. Where a SMILES comes first, the peptide text is derived from it. CO = O=C([*:1])[*:2]

Columns and labels:
Experiment in all cases: DTP human tumour cell line panel, 48 h
SK-MEL-5 melanoma = tested on: SK-MEL-5 melanoma
CCRF-CEM leukemia = tested on: CCRF-CEM leukemia
A498 renal = tested on: A498 renal
NCI/ADR-RES ovarian = tested on: NCI/ADR-RES ovarian
DU-145 prostate = tested on: DU-145 prostate
A549 NSCLC = tested on: A549 NSCLC
SF-295 CNS = tested on: SF-295 CNS
HOP-92 NSCLC = tested on: HOP-92 NSCLC

Structure (SMILES) | GI50 (SK-MEL-5 melanoma) | TGI (SK-MEL-5 melanoma) | GI50 (CCRF-CEM leukemia) | TGI (CCRF-CEM leukemia) | GI50 (A498 renal) | TGI (A498 renal) | GI50 (NCI/ADR-RES ovarian) | TGI (NCI/ADR-RES ovarian) | GI50 (DU-145 prostate) | TGI (DU-145 prostate) | GI50 (A549 NSCLC) | TGI (A549 NSCLC) | GI50 (SF-295 CNS) | TGI (SF-295 CNS) | GI50 (HOP-92 NSCLC) | TGI (HOP-92 NSCLC)
CC(=O)O[C@H]1C(=O)[C@@]2(C)[C@H]([C@H](OC(=O)c3ccccc3)[C@]3(O)C[C@H](OC(=O)[C@H](OC(=O)CCC(=O)OC4CCC(S/N=C(N)/N=C(\N)N(C)C)CC4)[C@@H](NC(=O)c4ccccc4)c4ccccc4)C(C)=C1C3(C)C)[C@]1(OC(C)=O)CO[C@@H]1C[C@@H]2O (some centres undefined) | 0.0176 µM | 10.5 µM | 0.0155 µM | > 50 µM | 0.0148 µM | > 50 µM | 1.82 µM | > 24.4 µM | 0.0135 µM | > 50 µM | 0.0084 µM | > 50 µM | 0.0116 µM | 0.0818 µM |  | 
CC(C)C(NC(=O)C(CCCN=C(N)N)NC(=O)NC(Cc1ccccc1)C(=O)O)C(=O)NC(C=O)CCCN=C(N)N (stereo not drawn) ({Phe-CO}-Arg-Val-Arg-aldehyde; configuration not given here) | > 5 µM | > 5 µM |  |  | > 5 µM | > 5 µM | > 5 µM | > 5 µM | > 5 µM | > 5 µM | > 5 µM | > 5 µM | > 5 µM | > 5 µM |  | 
N#C/C(=C\c1ccc(Br)cc1)n1nnc2cc(F)c(F)cc21 | 1.76 µM | 3.17 µM | 1.48 µM | 8.81 µM | 1.74 µM | 3.2 µM | 2.3 µM | > 100 µM |  |  | 2.14 µM | 5.62 µM | 1.58 µM | 3.27 µM | 1.57 µM | 4.15 µM
c1cncc(-c2cc(-c3cc(-c4cccnc4)n[nH]3)[nH]n2)c1 |  | > 100 µM |  |  |  | > 100 µM |  | > 100 µM |  | > 100 µM |  | > 100 µM |  | > 100 µM |  | > 100 µM
COc1cc(/C=C/C(=O)CC(=O)/C=C/c2ccc(OC(=O)CCNC34CC5CC(CC(C5)C3)C4)c(OC)c2)ccc1OC(=O)CCNC12CC3CC(CC(C3)C1)C2 | 3.28 µM | 12.6 µM |  |  | 4.61 µM | 17.5 µM | 8 µM | 49.9 µM | 1.4 µM | 3.13 µM | 10.3 µM | 28.5 µM | 2.56 µM | 6.99 µM | 2.64 µM | 17.6 µM
CCC(=O)Nc1ccc2c(c1)CN1C(=O)c3ccccc3C1=N2 | > 100 µM | > 100 µM |  |  |  |  | > 100 µM | > 100 µM | > 100 µM | > 100 µM | > 100 µM | > 100 µM | > 100 µM | > 100 µM | > 100 µM | > 100 µM
CC1=C([Se]CC(OC(=O)[C@@H](CSSC(C)(C)C)NC(=O)C(C)(C)C)C(=O)NCCCCCC(=O)OCc2ccccc2)C(=O)c2ccccc2C1=O (some centres undefined) | 1.89 µM | 3.34 µM |  |  | 1.63 µM | 4.77 µM | 3.4 µM | 11.4 µM | 2.13 µM | 4.51 µM | 2.11 µM | 5.42 µM | 0.317 µM | 1.95 µM |  | 
COc1ccc2c(c1)/C(=C/c1c(-c3ccc(C)cc3)nc3sc(C)cn13)C(=O)N2 | 11.9 µM | 30.5 µM | 6.84 µM | 80.3 µM | 20.2 µM | 60.6 µM |  |  | 4.75 µM | > 100 µM | 12.5 µM | > 100 µM | 11 µM | > 100 µM | 10.3 µM | 60.5 µM
Cn1c(Cc2ccccc2)nc2cc3ccccc3cc21 | 14.8 µM | 29.1 µM | 15 µM | 37.6 µM |  |  | 24.8 µM | 68.7 µM | 26.4 µM | 66.7 µM | 31.8 µM | > 100 µM | 25.5 µM | 75.6 µM | 10.7 µM | 34.6 µM
O=C(CSc1nc2sc3c(c2c(=O)n1-c1ccccc1)CCCCC3)N/N=C/c1ccc(F)cc1 | 2.93 µM | 9.56 µM | 3.16 µM | > 100 µM |  |  | 2.25 µM | 6.72 µM | 1.24 µM | 4.3 µM | 2.48 µM | 10.8 µM | 3.8 µM | 14.7 µM | 2.47 µM | 8.65 µM
C/C=C/C/C=C/CCC(=O)C1OC1C(N)=O (centres undefined) |  | 28.3 µM |  | 98.3 µM |  |  |  | 50.1 µM |  | 31.3 µM |  | 56 µM |  | 30 µM |  | 29.4 µM
O=C1OC2(c3ccccc31)c1cc(I)c(O)c(I)c1Oc1c2cc(I)c(O)c1I |  | > 100 µM |  | > 100 µM |  |  |  | > 100 µM |  | > 100 µM |  | > 100 µM |  | > 100 µM |  | > 100 µM
COc1cc(C(=O)O)ccc1NC(=O)[C@@H]1N[C@@H](CC(C)(C)C)[C@](C#N)(c2ccc(Cl)cc2F)[C@H]1c1cccc(Cl)c1F |  |  | 2.53 µM | > 26.3 µM | 0.132 µM | 2.79 µM | 6.83 µM | 25.2 µM | 5.24 µM | 30.4 µM | 0.138 µM | 8.21 µM | 2.78 µM | 8.64 µM | 2.48 µM | 5.15 µM
N#Cc1c(SCc2ccccc2)nc2[nH]c(=S)[nH]c(=S)c2c1-c1ccco1 | 23.9 µM | > 100 µM |  |  | 55.3 µM | > 100 µM | 26.6 µM | > 100 µM | 54 µM | > 100 µM | 64.1 µM | > 100 µM | 43.5 µM | > 100 µM | 3.45 µM | 26.2 µM
O=c1[nH]cnc2c1nnn2[C@@H]1O[C@H](CO)[C@@H](O)[C@H]1O | 13.1 µM | > 100 µM | 1.34 µM | > 100 µM | 2.51 µM | 57.4 µM | 2.27 µM | > 100 µM | 1.72 µM | > 100 µM | 27.5 µM | > 100 µM |  |  | 2.33 µM | > 100 µM
O=C1NC(=O)[C@H]2C3C=CC([C@@H]12)[C@@H]1C(=O)NC(=O)[C@H]31 |  | > 100 µM |  | > 100 µM |  |  |  | > 100 µM |  | > 100 µM |  | > 100 µM |  | > 100 µM |  | > 100 µM
COc1cc2c(cc1OCCCCCN1CCN(c3cc(=O)oc4c(C)c(OC)ccc34)CC1)N=C[C@@H]1CCCN1C2=O |  |  | < 0.01 µM | 0.106 µM | < 0.0127 µM | 0.0289 µM | 1.55 µM | 8.25 µM | < 0.01 µM | 5.36 µM | 0.0211 µM | 15.4 µM | < 0.0139 µM | 2.42 µM | < 0.01 µM | < 0.0141 µM
